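96-well plates; 48 h exposure; 5 concentrations. Endpoints by linear interpolation between flanking doses. Not reached: highest tested concentration assigned. TGI denotes the concentration required for complete inhibition of growth.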
Tests used:
Assay in all cases: NCI tumour cell line growth inhibition, 48 h
SR leukemia = system: SR leukemia
MDA-MB-231 breast = system: MDA-MB-231 breast
BT-549 breast = system: BT-549 breast
PC-3 prostate = system: PC-3 prostate
MDA-MB-435 = system: MDA-MB-435
T-47D breast = system: T-47D breast
P388 leukemia = system: P388 leukemia
M19-MEL melanoma = system: M19-MEL melanoma
KM20L2 colon = system: KM20L2 colon

SMILES	TGI (SR leukemia) [µM]	TGI (MDA-MB-231 breast) [µM]	TGI (BT-549 breast) [µM]	TGI (PC-3 prostate) [µM]	TGI (MDA-MB-435) [µM]	TGI (T-47D breast) [µM]	TGI (P388 leukemia) [µM]	TGI (M19-MEL melanoma) [µM]	TGI (KM20L2 colon) [µM]
O=C1CC(=O)c2c(O)cc(O)c(c2O)-c2c(ccc(O)c2O)C2=CC(=O)c3c(O)cc(O)c(c3O2)-c2c1ccc(O)c2O (tested in a mixture with another compound)	> 50	> 50	> 50	> 50	> 50	> 50			
CCCCCCCCCCCCCCCCSCC(COC)COP(=O)([O-])OCC[N+](C)(C)C (stereo not drawn)							5.26	11	
CC(=O)NCCC1CN(C(=O)/C=C\C#C[Si](C)(C)C)c2ccccc21 (stereo not drawn)		67.3	> 100	> 100	> 100	86.4			
CCOC(=O)c1sc2nc(SC)nc3c2c1NC(=O)CN3c1cccc(F)c1	> 100	41.3	21.3	34.4	> 100				
O=C(NCCCCCCNC(=O)n1cc(F)c(=O)[nH]c1=O)NCCCOCCOCCCNC(=O)C(O)C(O)C(O)C(O)CO (stereo not drawn)							> 2.5	> 2.5	> 2.5
C/C(=N\NS(=O)(=O)c1ccccc1)c1ccccc1							> 100		> 100
O=C(CC/C=C(/CS(=O)(=O)c1ccccc1)S(=O)(=O)c1ccccc1)c1ccccc1	> 100								> 100
CC(=O)OCC1OC(n2cc(F)c(=O)[nH]c2=O)C(N)C(OC(C)=O)C1OC(C)=O (stereo not drawn)							> 100	> 100	> 100

Reference: PubChem BioAssay (NCI)
